Molecules are shown by their SMILES.

By melting point is commonly meant the temperature of the solid-liquid transition. In turn, `OCCCC#Cc1cnc(-c2ccccc2)c(-c2ccccc2)n1` returned a melting point of 88 to 90 °C.

Take `COc1ccc([C@H](Sc2ccccc2N)[C@@H](O)C(=O)Nc2ccccc2)cc1`: the melting point was in the range of 215 to 217 °C. On to `COC(=O)C1CCC2C3CCC4CC(O)C(Br)CC4(C)C3C(=O)CC12C` (centres undefined), for which the melting point was 205 to 208 °C.

Turning to `COc1cn(-c2ccc(OCc3ccccc3)cc2F)nc(-c2ccnn2-c2ccccc2)c1=O`, the melting point is 181 to 183 °C. `CCOC(=O)C1=C(C)NC(=S)N(C(=O)OC)C1c1cccc([N+](=O)[O-])c1` (centres undefined) had a melting point of 150 to 151 °C. In turn, `Nc1cc(N2CCOCC2)ccc1[N+](=O)[O-]` yielded a melting point of 177 to 178 °C. As for `O=C(CC[C@H](NC(=O)OCc1ccccc1)C(=O)OCc1ccccc1)ON1C(=O)CCC1=O`, the melting point lay within 104 to 106 °C. For `CC(C)(C)C(=O)c1c[nH]nc1N` the value was 159 to 160 °C; for `COc1cc2c(c3c1OC(C)(C)C3)C(c1ccc(=O)[nH]c1)=NC(C)(C)C2`, 195 to 196 °C.

Compound `CC(=O)OCC(=O)C1(O)C(C)CC2C3CC(C)C4=CC(=O)CCC4(C)C3=CCC21C` (centres undefined) yielded a melting point of 197 to 199 °C. As for `N#Cc1ccc2c(c1)NC(=O)CO2`, the melting point was 243 to 245 °C.

Turning to `CC(C)c1nc(N)oc1-c1cccc2ccccc12`, the melting point lay within 127 to 129 °C. For `Cc1cccc(C(N)c2ccc3nc(NC4CCN(CCO)CC4)n(Cc4nc(C)ccc4O)c3c2)c1` (centres undefined) the value was 137 °C; for `CCOc1nn(CCOc2ccc3ccccc3c2CC(=O)O)cc1C(=O)NCc1ccc(Cl)cc1Cl`, 199 to 201 °C; for `CCC(=O)c1[nH]c2cc(Cl)ccc2c1N`, 144 to 146 °C. In the case of `COc1cc(OC)n2ncc(Br)c2n1`, the melting point lay within 188 to 190 °C.

`N#Cc1c(Cl)ccc2ccccc12`: the melting point is 82 to 83 °C. `C#CCNc1c(-c2c(F)cc(F)cc2F)c(Cl)nc2ncnn12` yielded a melting point of 141 °C. The figure for `CC1CCc2c(N3CCCC3)c(F)cc3c(=O)c(C(=O)O)cn1c23` (centres undefined) is 243 to 245 °C; for `Nc1ccc(C(=O)N2CCNC(=O)C2c2cccs2)cc1` (centres undefined) it is 181 to 182 °C. The figure for `Cn1ncc2c(=O)n3c(nc21)SC(C)(C)C3` is 188 °C; for `Cc1oc(-c2ccccc2)nc1COc1ccc(COc2ccc(OCc3ccccc3)cc2CC#N)cc1` it is 130 to 131 °C.

Consider `c1ccc2cc(Cc3nc4cc(CCC5OCCO5)ccc4o3)ccc2c1`, for which the melting point was in the range of 85 to 86 °C. With `CCc1ccc(N2CCOCC2)c(NC(C)=O)c1`, the melting point stood at 82 °C. For the compound `O=C(Nc1cc(-c2ccccc2)on1)Nc1cccc2c1C1CCCCN1C2=O` (centres undefined), the melting point worked out at 248 °C. Compound `OCc1ccc(OCc2ccccc2)cc1O` displayed a melting point of 88 to 90 °C. For `COC(=O)C(=CN(C)C)C(=O)C=Cc1ccc(Cl)cc1`, the melting point is 78 to 80 °C. For `CSCc1ccccc1S(N)(=O)=O` the value was 119 to 124 °C. For `CCOC(=O)C1=C(C)NC(COC(=O)CCC(=O)O)=C(C(=O)OCC)C1c1ccccc1Cl` (centres undefined) the value was 130 to 131 °C. For the compound `COC(=O)C(c1ccccc1CCl)C(OC)OC` (centres undefined), the melting point lay within 63.5 to 64.5 °C. `CC1=C(C(=O)OC(C)C)C(c2cccc([N+](=O)[O-])c2)n2c(cc(=O)n2C(=O)c2ccccc2)N1` (centres undefined) displayed a melting point of 201 to 203 °C. For `COC(=O)c1ccc(C(=O)C2CCC3=C(N=C(C(C)C)C(C(C)C)N3)C2=O)cc1` (centres undefined) the value was 82 to 84 °C; for `COc1nc2nc(SCc3ccccc3)nn2cc1C`, 145 to 146 °C; for `CCOC(Cc1ccc(OCc2nc(C3CC3)oc2C)c2ccccc12)C(=O)O` (centres undefined), 166 to 168 °C. The figure for `COC(=O)c1ccc2c(nc(C)n2C)c1C1=NC(C)(C(C)C)C(=O)N1` (centres undefined) is 240 to 242 °C; for `COc1cc(OC)c(-c2cc3ccccc3n2C(=O)OC(C)(C)C)cc1/C=C/C(=O)c1ccc(S(N)(=O)=O)cc1` it is 120 to 122 °C.

With `COc1ccc(CCCN2C=CC=C3C2=Nc2ccc(Cl)cc2S(=O)(=O)N3C)cc1`, the melting point lay in the range of 62 to 65 °C.

On to `Cc1cc(SC2=C(O)CC(CCc3ccccn3)(C(C)C)OC2=O)c(C(C)(C)C)cc1CO` (centres undefined), for which the melting point fell in the range of 100 to 110 °C. The figure for `Clc1c2ccccc2nc2c1cnn2-c1ccccn1` is 153 to 156 °C; for `Fc1ccc(Nc2ncnc3cnc(NC4CCC(N5CCCC5)CC4)nc23)cc1Cl` (centres undefined) it is 192 to 195 °C. In turn, `CC(=O)CN1C(=O)c2ccc3ccccc3c2S1(=O)=O` showed a melting point of 163 to 165 °C. The figure for `COc1cc(C(=O)NS(=O)(=O)c2ccccc2C)ccc1Cc1cn(C(C)C)c2ccc(CCCC(=O)N(C)C)cc12` is 60 °C. The figure for `CNC(=O)c1cc(Br)cc(I)c1` is 205 °C.

Consider `Nc1nc(N)c(-c2cc(Cl)cc(Cl)c2Cl)c(C(Cl)(Cl)Cl)n1`, for which the melting point lay in the range of 226 to 227 °C. `CCC(CC)(CO)NC(N)=S` returned a melting point of 148 to 151 °C. For `Cc1ccc2c(C(=O)NC3CN4CCC3CC4)cnn2c1` (centres undefined) the value was 142 to 144 °C; for `CC(=O)c1ccc(N2CCN(Cc3n[nH]c4ccccc34)CC2)cc1`, 198 to 200 °C; for `N#CCC(=O)c1nn(-c2ccccc2)c2c1Cc1ccccc1-2`, 189 to 190 °C. The compound `CCOC(CC)=C1SC(=S)N(c2ccccc2)C1=O` came in with a melting point of 178 to 181 °C. For `Nc1nc2cccnc2c2c1nc(CO)n2CC1(O)CCC1`, the melting point is 244 to 246 °C. The figure for `CC(C)(C)c1cc(CCc2ccccc2NC(=O)NC2CCN(CCc3ccc(F)cc3)CC2)cc(C(C)(C)C)c1O` is 117 to 119 °C; for `CCNC(=O)Nc1cccc(-c2cccc(OC)c2)c1` it is 152 to 154 °C; for `Clc1nc(C2=NCCN2)[nH]c1Cl` it is 260 °C. The figure for `CC(=O)Nc1ccc(N=C=S)cc1O` is 68 to 70 °C.

The compound `C[C@@H](NC(=O)OC(C)(C)C)C(=O)NCCCN1CCN(CCCNc2cccc3c2C(=O)c2ccccc2C3=O)CC1` yielded a melting point of 78 to 80 °C. For `COc1ccccc1OC(=O)CCl` the value was 60 to 61.5 °C. On to `CCCCC1(CC)CSC2=CC=CC3=CNCC32C(c2ccccc2)=N1` (centres undefined), for which the melting point fell in the range of 145 to 146 °C. `O=C(CCN1CCC(C(O)c2ccc3ccccc3c2)CC1)Cc1ccc(F)cc1` (centres undefined): the melting point fell in the range of 100 to 102 °C. For `O=C(O)c1ccc2c(Cl)ccnc2c1` the value was > 235 °C; for `CCOC1CCN(C(=O)c2ccc(Cl)c(C3(C)C(=O)N(Cc4ccc(OC)cc4OC)c4ccc(Cl)cc43)c2)CC1` (centres undefined), 108 °C. The figure for `C=CCn1cc2c(C3C(=O)Nc4ccc(C#N)cc43)ncnc2n1` (centres undefined) is > 300 °C. For `CC(C)(C)OC(=O)NC12CCC1CN(Cc1ccccc1)C2` (centres undefined) the value was 69 to 70 °C. In the case of `CN(CCc1ccc(O)c(O)c1)C(=O)/C=C/c1cccnc1`, the melting point lay in the range of 155 to 158 °C. Take `CCCN(C=O)n1cc(C(=O)OCC)c(=O)c2cc3c(cc21)OCO3`: the melting point lay within 188 to 192 °C.

With `COc1cc2nc(N3CCN(C(=O)C=Cc4ccc(C(C)C)cc4)CC3)nc(N)c2cc1OC`, the melting point is 237 to 238 °C. Turning to `O=C(Cc1ccccc1)NCc1cccc2c1CN(C1CCC(=O)NC1=O)C2=O` (centres undefined), the melting point was 236 to 238 °C. Compound `O=[N+]([O-])CC(c1ccc(Cl)cc1)C1CCCCC1O` (racemic) gave a melting point of 82 to 84 °C. The figure for `COc1cc(-c2c(Cl)c(CN3C(=O)CCC3=O)nc3sc4c(c23)CCN(C(C)=O)C4)ccc1OC(C)C` is 242 to 243 °C. Take `CCc1n[nH]c(CC)c1CCCCCCOc1ccc(Br)cc1`: the melting point lay in the range of 31 to 33 °C. The figure for `Cc1ccc2oc(=O)c(C(=O)Oc3cc([N+](=O)[O-])ccc3[N+](=O)[O-])cc2c1` is 225 to 229 °C. Regarding `O=C1CCCC2=C1C(c1ccc(F)c(Cl)c1)C1=C(CCS1)N2` (centres undefined), the melting point was > 250 °C. Consider `COc1ccc(-c2nc(N3CCN(C)CC3)c3c(C)c(C#N)sc3n2)cc1`, for which the melting point was > 250 °C. The figure for `CN(C)c1ccc(CNc2ccc(Cl)c(Cl)c2)cc1` is 117 °C; for `C#CCOc1ccc2c(c1)c(-c1ccc(C(C)C)cc1)nc(=O)n2Cc1cccc(N2CCCC2=O)c1` it is 68 to 69 °C; for `CC#Cc1ccc(NC(=O)c2ccccc2NCc2ccc(OC)nc2)cc1C(F)(F)F` it is 123 to 124 °C. The figure for `CCCN(Cc1ccc(-c2ccccc2-c2nnnn2C(c2ccccc2)(c2ccccc2)c2ccccc2)cc1)c1nc(C)nnc1C(=O)OCC` is 178 to 179 °C.

In turn, `Cc1nnc(C=O)n1-c1ccc(Cl)cc1C(=O)c1ccccc1` showed a melting point of 105 to 138 °C. For `CN1C2=NCCCN2C(=O)c2cc(Cl)ccc21` the value was 119 to 120 °C; for `CCOC(=O)/C=C(/c1ccc(OC)cc1)c1cc(Cl)cc(Cl)c1`, 116 to 118 °C; for `CC(C)(C)OC(=O)NCCCCCCNS(=O)(=O)c1ccc(Oc2ccccc2)cc1`, 77 to 78 °C. In turn, `COCC1CN(Cc2cc(OC)c(OC)c(OC)c2)CCN1C(=O)c1cn2ccccc2n1` (centres undefined) registered a melting point of 129 to 130 °C. For `Nc1ncnc2c1ncn2CCCN1CCC(COc2ccccc2)CC1` the value was 142 to 144 °C; for `CCCCCCCCCCCCCCCCOc1ccc(OCC(=O)O)cc1`, 125 to 127 °C; for `CCn1ncc2c(ON=C(C)C)c(C(=O)c3ccccc3)cnc21`, 115 to 116 °C. `O=C(Nc1cccc2c(-n3ccnc3)c(CO)cnc12)c1c(Cl)cccc1Cl` yielded a melting point of 205 to 207 °C.

`CC(=Cc1ccc(OCCCNc2ccc(Cl)cc2)cc1)C(=O)O` gave a melting point of 188 to 193 °C.

Compound `O=[N+]([O-])c1ccc(OCCn2ccnc2)cc1` displayed a melting point of 55 to 57 °C. For `CCOC(=O)c1cn(-c2ccc(OC)cc2)c2cc(F)c(F)cc2c1=O` the value was 212 to 214 °C; for `Cc1ccc(C(=O)NCCNC(=O)OC(C)(C)C)s1`, 109 to 110 °C.
